From patent US20150328109A1, “DERMAL COMPOSITIONS CONTAINING UNNATURAL HYGROSCOPIC AMINO ACIDS” (MEDPHARM LIMITED, priority 2012, published 2015)
Values joined by “and” are separate entries in the source; they are usually repeats but may differ in a detail not shown here. Equal entries are not always repeated.

Experiments:
[1] = tested on: Psoriatic tissues; assay: Tissue viability (MTT) of psoriatic tissue during 6 day treatment; assay type: cell-based, human; conditions: for Psoriatic tissues as a percentage of untreated control (%): 10% w/v, n = 1; for irritancy conclusion from tissue viability over 6 days: 6 day dosing period
Source text: (§1) A human cell based in vitro psoriatic tissue model consisting of psoriatic fibroblasts and normal keratinocytes was used in this study. […] GM-CSF is a key activator of the innate immune system involved in chronic inflammatory and autoimmune diseases including psoriasis (Löntz et al 1995), where macrophages, granulocytes, neutrophils, eosinophils and dendritic cells can contribute to tissue damage and disease progression (Krinner 2007). GM-CSF stimulates stem cells to produce granulocytes and other macrophages and subsequently activates these differentiated immune cells. GM-CSF has also been identified as an inflammatory mediator in autoimmune disorders with elevated levels of GM-CSF mRNA or protein being measured in a variety of inflammatory sites including in allergic and psoriatic patients, arthritic and asthmatic patients (Plater-Zyberk et al 2008). Numerous in vivo studies over the past few years have shown that blockade of GM-CSF via neutralising antibodies can prevent or even cure pro-inflammatory diseases in various models of inflammation including arthritis experimental autoimmune encephalitis, psoriasis (Schon et al 2000), and lung disease (Plater-Zyberk et al 2008). […] Due to the importance of GM-CSF in psoriasis it was selected for analysis in this study.
(§2) In this investigation two types of RHE tissues were used, which were healthy and psoriatic tissue sourced from the MatTek Corporation (Ashland, Mass.). For simplicity the protocol below refers to both tissue types as RHE tissues and all media as assay medium as both tissues were treated in the same manner. The only exception was that two different types of media were required for the different types of tissue (healthy and psoriatic tissues).
• (i) At the end of the equilibration period, the media for each well was removed then the tissues were lifted and placed on culture stands and fresh pre-warmed (37° C.) assay medium (5 mL) was added to the well. • (ii) Using a positive displacement pipette, the test solutions 10% w/v, N-H-S(N-hydroxyserine) in water, […], N-H-G (N-hydroxyglycine) in water, 10% w/v, L-h-S (L-homoserine) in water and 10% w/v, combination 1:1:1 (N-H-S:N-H-G: L-h-S) in water were dispensed (50±0.5 μL) onto the top of the RHE tissue. The solutions or controls were then distributed over the surface of the RHE tissues using a sterile glass rod. • (iii) The lid was placed on the well plate containing the RHE tissue and the tissues were returned to the incubator (37° C., 5% CO2) 48 h between applications.
• (i) Every 48 h culture media for the RHE tissues was removed from the 6 well plates and transferred into tubes stored (−20° C.) for cytokine analysis. • (ii) Fresh pre-warmed (37° C.) assay medium (5 mL) was added to each tissue using an automatic pipette. • (iii) From each treatment 1 tissue was removed for viability assessment. • (iv) The RHE tissues were subsequently rinsed with 100 μL of PBS to remove the residual solution from the epidermal surface. • (v) Using a positive displacement pipette, the solutions 10% w/v, N-H-S in water, 1% w/v, N-H-G in water, 10% w/v, L-h-S in water and 10% w/v, combination 1:1:1 (N-H-S:N-H-G:L-h-S) were dispensed (50±0.5 μL) onto the top of the RHE tissue. The solutions or controls were then distributed over the surface of the RHE tissues using a sterile glass rod. • (vi) The lid was placed on the well plate containing the RHE tissue and the tissues were returned to the incubator (37° C., 5% CO2) 48 h between applications at t=0, 48 and 96 h. […]

[2] = tested on: GM-CSF; assay: GM-CSF release from in vitro psoriatic tissue model (ELISA); assay type: cell-based, human; conditions: over 6 days; 10% w/v N-H-S, 1% w/v N-H-G, 10% w/v L-h-S, 10% w/v combination 1:1:1 in water
Source text: as §1
as §2, with “tissues). […]” for “tissues).”

[3] = Deliquescence relative humidity (DRH) of a saturated solution in a sealed vessel at 32° C.; assay type: physicochemical; conditions: saturated solution in water (1 mL), 24 hours, mass used printed beside the name
Experimental: This experiment was to measure the deliquescence relative humidity (DRH) caused by a saturated amino acid solution in a sealed vessel at 32° C.; the lower the DRH, the greater the water holding capacity of the solution measured. Deliquescence relative humidity is the relative humidity at which the compound deliquesces, i.e. the relative humidity in which the compound absorbs so much water that it dissolves within the absorbed water.
The apparatus is maintained at 32° C. The temperature of 32° C. was chosen for being the temperature of outer stratum corneum. As the amino acids are to eventually be delivered to the outer layer of the skin, then the water holding capacity of these compounds at 32° C. is important.
The saturated solution is prepared as above by adding the amino acid to water (1 mL, 32° C.), whilst swirling. The total amino acid is weighed before adding to the water and the remaining amino acid so that the mass of compound used can be determined. The saturated solution (1 mL, 32° C.) is then transferred into the vial, again because of partial molar volume causing a change in volume by the addition of the amino acid to the water.
The temperature and % RH (% Relative Humidity) shown on the thermo-hygrometer are recorded every 30 minutes until the % RH remains constant. The temperature confirms that the temperature experienced by the sample is 32° C.

With `O=C(O)[C@H](CO)NO` [N-hydroxyserine] the “Psoriatic tissues as a percentage of untreated control (%)” value (“Psoriatic tissues as a percentage … (%)” for short) ([1]; 2 days in treatments) was 94.0%, the “Psoriatic tissues as a percentage … (%)” value ([1]; 4 days in treatments) was 75.3% and the “irritancy conclusion from tissue viability over 6 days” value (from here on “irritancy conclusion … over 6 days”) [1] was “non-irritant”. For the same compound, the “irritancy conclusion … over 6 days” value ([1]; listed as N-H-S) was “non-irritating”, the “Psoriatic tissues as a percentage … (%)” value ([1]; 6 days in treatments) was 96.0% and the “release of GM-CSF from psoriasis tissues compared to untreated psoriasis tissues” value [2] was “reduced”. It also gave a DRH [3] of 68.3%.
With `O=C(O)CNO` [N-hydroxyglycine, N-Hydroxyglycine] the “Psoriatic tissues as a percentage … (%)” value ([1]; 2 days in treatments) was 87.1%, the “Psoriatic tissues as a percentage … (%)” value ([1]; 4 days in treatments) was 77.6% and the “irritancy conclusion … over 6 days” value [1] was “non-irritants”. The “irritancy conclusion … over 6 days” value ([1]; listed as N-H-G) was “non-irritating”, the “Psoriatic tissues as a percentage … (%)” value ([1]; 6 days in treatments) was 89.6% and the “release of GM-CSF from psoriasis tissues compared to untreated psoriasis tissues” value [2] was “reduced”. For the same compound, the DRH [3] was 68.1%.
In the case of `N[C@@H](CCO)C(=O)O` [L-homoserine], the “irritancy conclusion … over 6 days” value [1] is reported as “non-irritants”, the “release of GM-CSF from psoriasis tissues compared to untreated psoriasis tissues” value [2] is reported as “reduced” and the DRH [3] is reported as 71.4% and 71.37%.
